Laboratory results from patent US10730851B2, “Polymorph of triaryldimethylpiperazine dihydrochloride and preparation method and application thereof” (priority 2016, dated 2020).
Structures can show the parent of a compound that is named as a salt. Where two headings read alike, the source gives them in different places.

What was measured:
SPF-grade SD rats = assay: Forced swimming test; format: in vivo; details: rats; dihydrochloride
Protocol: Forced swimming test is used to test the antidepressant effects of polymorph forms P, F, O, B and J.
the swimming test equipment is a transparent glass round cylinder with a height of 46 cm and an inner diameter of 20 cm, the test water temperature is 23° C.˜25° C., the test water depth is 30 cm, and each cylinder is used only once.
(§1) 300 mg of a polymorph form P is weighed with an electronic balance, and the polymorph form P is dissolved with 0.9% normal saline, and finally the volume is fixed to 100 mL with 0.9% normal saline, at this time, the concentration of dihydrochloride in the experimental reagent is 3 mg/mL for later use.
as §1, with “600” for “300”, “6” for “3”
400 mg of desipramine (DMI) is weighed with an electronic balance, DMI is dissolved with 0.9% normal saline, and then the volume is fixed to 100 mL with 0.9% normal saline for later use.
Forty SPF-grade SD rats are prepared and randomly divided into 4 groups, namely vehicle control group, positive control group, experimental group 1 and experimental group 2, with 10 rats in each group. The day before the test, the rats were placed in water for 15 min to pre-swim for 15 min in advance to adapt to the swimming test environment, then taken out and dried, placed in the cage under an infrared lamp for 15 min and then placed in the original cage. After 24 h, a formal swimming test is conducted, that is, the rats are put into water again after 24 h, and the rats are continuously observed for 5 min. The swimming process are needed to be photographed. The drug is administered during two swimming sessions.
The positive control group containing DMI is administered three times, at 23.5 h, 5 h and 1 h before the formal swimming test respectively. Vehicle control group, experimental group 1 and experimental group 2 are each administered only once and subcutaneously within 1 h.
The behaviors of the rats are scored by the scorer every 5 seconds after recording the experiment.
1) Static—when the rat floats on the water surface without struggling and moves only to keep its head above the water surface, the rat is evaluated as static;
2) Swimming—if the rats have obvious swimming behaviors, not only to keep their heads above the water surface, or to travel around in a round cylinder, they are evaluated as swimming;
3) Wall climbing—the rats' front paws have obvious behavior of entering and leaving the water surface, usually, rats are evaluated as wall climbing in front of the round cylinder wall.
All behavioral are scored by a single person. To avoid bias of observation, the scorer only observed and scored without knowing the administration situations. Then multiple test fragments are randomly selected, and the scorer will score the second round to determine the accuracy of observation. The test video is scored again by the second scorer to determine the accuracy between scorers. The second scorer are also required to observe without knowing the drug administration. Finally, in order to determine the effectiveness of the method, the first scorer scored again and recorded the duration of various behaviors with a stopwatch.
SPSSwin11.0 software is used for variance analysis. One-way variance analysis is used for homogeneity of variance, and Dunnett test is used for heterogeneity of variance.

[1] = Dynamic solubility test in water, SGF, FeSSIF, FaSSIF; format: physicochemical; details: for pH in clear solution: dihydrochloride
Protocol: The dynamic solubility of a free base, polymorph forms B, P, F, J and O in water or a biological medium such as Stimulated Gastric Fluid (SGF), Fed State Simulated Intestinal Fluid (FeSSIF) or Fasted State Simulated Intestinal Fluid (FaSSIF) is determined.
0.2 g sodium chloride and 0.1 g Triton X-100 is weighed and placed into a 100 mL volumetric flask. Purified water is added to dissolve. A stir is performed until the solid is completely dissolved. About 135 μL concentrated hydrochloric acid solution (37%, […]) is added, then the pH is adjusted to 1.8 with […] hydrochloric acid or 1 mmoL/L sodium hydroxide. Finally, the volume is fixed with purified water to obtain Stimulated Gastric Fluid (SGF) for later use.
Each of 0.41 mL glacial acetic acid, 0.20 g sodium hydroxide and 0.59 g sodium chloride is weighed and placed to a 50 mL volumetric flask. About 48 mL purified water is added to dissolve, the pH is adjusted to 5.0 with 1 mmoL/L hydrochloric acid or 1 mmoL/L sodium hydroxide, and the volume is fixed with purified water. Then 0.56 g of Simulated Intestinal Fluid powder (SIF powder for short, which is composed of […] with a molar ratio of 4:1) is added, stirred and ultrasonically dissolved to obtain Fed State Simulated Intestinal Fluid (FeSSIF) for later use.
Each of 0.17 g of anhydrous sodium dihydrogen phosphate (NaH2PO4), 0.021 g of sodium hydroxide and 0.31 g of sodium chloride is weighed and placed into a 50 mL volumetric flask. About 48 mL of purified water is added to dissolve, the pH is adjusted to 6.5 with 1 mmoL/L hydrochloric acid or 1 mmoL/L sodium hydroxide, and the volume is fixed with purified water. 0.11 g of SIF powder is added, stirred and ultrasonically dissolved to obtain Fasted State Simulated Intestinal Fluid (FaSSIF) for later use.
Each 30 mg of the free base, and polymorph forms B, P, F, J and O are weighed. 3 mL of purified water, Stimulated Gastric Fluid (SGF), Fed State Simulated Intestinal Fluid (FeSSIF) or Fasted State Simulated Intestinal Fluid (FaSSIF)) is added and oscillated at room temperature. 0.6 mL of suspension is taken each time at a set time point, filtered and separated with a 0.45 μm nylon filter membrane, then XRPD characterization is performed on the solid sample, and the concentration in the clear solution is measured by HPLC.

Compound | antidepressant effect in forced swimming test (in words) (SPF-grade SD rats) | solubility compared with the free base [1] | pH in clear solution ([1]; FaSSIF, Time 1) | pH in clear solution ([1]; FaSSIF, Time 2) | pH in clear solution ([1]; FaSSIF, Time 4) | pH in clear solution ([1]; FaSSIF, Time 24) | pH in clear solution ([1]; FeSSIF, Time 1) | pH in clear solution ([1]; FeSSIF, Time 2) | pH in clear solution ([1]; FeSSIF, Time 4) | pH in clear solution ([1]; FeSSIF, Time 24) | pH in clear solution ([1]; SGF, Time 1) | pH in clear solution ([1]; SGF, Time 2) | pH in clear solution ([1]; SGF, Time 4) | pH in clear solution ([1]; SGF, Time 24) | pH in clear solution ([1]; Water, Time 1) | pH in clear solution ([1]; Water, Time 2) | pH in clear solution ([1]; Water, Time 4) | pH in clear solution ([1]; Water, Time 24) | solubility compared with the free base ([1]; pH 1.8) | other results
CC1CCN(C(=O)c2ccc([C@H](c3cccc(O)c3)N3C[C@@H](C)N(Cc4cccc(F)c4)C[C@@H]3C)cc2)CC1 [Polymorph form B, (4-((R)-((2S,5R)-4-(3-fluorobenzyl)-(2,5-dimethylpiperazine-1-yl)(3-hydroxyphenyl)methyl)phenyl)(4-methylpiperidine-1-yl)methanone dihydrochloride] | effectively reduce the static times and duration of forced swimming in rats | significantly improved | 2.5 | 2.6 | 2.5 | 2.3 | 4.8 | 4.8 | 4.8 | 4.6 | 1.5 | 1.5 | 1.5 | 1.5 | 1.8 | 1.8 | 1.8 | 1.7 | close to or slightly improved | –
CC1CCN(C(=O)c2ccc([C@H](c3cccc(O)c3)N3C[C@@H](C)N(Cc4cccc(F)c4)C[C@@H]3C)cc2)CC1 [Polymorph form F, (4-((R)-((2S,5R)-4-(3-fluorobenzyl)-(2,5-dimethylpiperazine-1-yl)(3-hydroxyphenyl)methyl)phenyl)(4-methylpiperidine-1-yl)methanone dihydrochloride] | effectively reduce the static times and duration of forced swimming in rats | significantly improved | 3.5 | 4.6 | 4.2 | 4.5 | 4.8 | 4.9 | 4.9 | 4.9 | 1.6 | 1.6 | 1.6 | 1.4 | 1.8 | 1.9 | 1.8 | 1.5 | close to or slightly improved | Crystal form of insoluble solid sample ([1]; pH 1.8): invariability; Crystal form of insoluble solid sample ([1]; pH 5): invariability; Crystal form of insoluble solid sample ([1]; pH 6.5): invariability
CC1CCN(C(=O)c2ccc([C@H](c3cccc(O)c3)N3C[C@@H](C)N(Cc4cccc(F)c4)C[C@@H]3C)cc2)CC1 [Polymorph form J, (4-((R)-((2S,5R)-4-(3-fluorobenzyl)-(2,5-dimethylpiperazine-1-yl)(3-hydroxyphenyl)methyl)phenyl)(4-methylpiperidine-1-yl)methanone dihydrochloride] | effectively reduce the static times and duration of forced swimming in rats | significantly improved | 2.8 | 3.0 | 2.8 | 2.6 | 4.8 | 5.0 | 4.9 | 4.7 | 1.7 | 1.5 | 1.5 | 1.6 | 1.8 | 1.7 | 1.7 | 1.4 | close to or slightly improved | Crystal form of insoluble solid sample [1]: amorphism
